One molecule from article PMC7730205, “Different Sensitivity of Control and MICU1- and MICU2-Ablated Trypanosoma cruzi Mitochondrial Calcium Uniporter Complex to Ruthenium-Based Inhibitors” (International Journal of Molecular Sciences, 2020) can be followed below.

Assay [1] relates to T. cruzi epimastigotes (control, TcMICU1-KO, TcMICU2-KO). Nature of the assay: Mitochondrial membrane potential of digitonin-permeabilized epimastigotes (safranine O). The format is cell-based, Trypanosoma cruzi. The settings on record: TcMICU1-KO or TcMICU2-KO cells, succinate. An excerpt: To determine whether the defect in mitochondrial Ca^2+ uptake in the presence of inhibitors was not secondary to mitochondrial membrane depolarization, we measured the mitochondrial membrane potential (Δψm) of digitonin-permeabilized epimastigotes using safranine O in the presence of succinate as mitochondrial substrate.
Figure 3 Effect of inhibitors on the mitochondrial membrane potential of epimastigotes. Changes in mitochondrial membrane potential (Δψm) of digitonin-permeabilized epimastigotes as detected by changes in safranine O fluorescence in control (a), TcMICU1-KO (b), and TcMICU2-KO (c) epimastigotes in the absence or presence of inhibitors. Cells (5 × 10^7) were added to the reaction buffer (2 mL) containing 0.2% BSA, 5 mM succinate, 50 μM EGTA and 5 μM safranine O. The reaction was started with 50 μM digitonin (DIG) in the presence or absence of the inhibitor, and 250 μM ADP, 1.5 μM carboxyatractyloside (CAT), 50 μM CaCl2 (Ca^2+), 200 μM EGTA, and 4 μM FCCP were added when indicated. A decrease in fluorescence after permeabilization with digitonin indicated the accumulation of the dye in energized mitochondria. The addition of ADP produced a small dissipation of membrane potential, indicating ADP phosphorylation. Δψm returned to its initial level after the addition of the adenine nucleotide translocator inhibitor CAT. The addition of FCCP collapsed the membrane potential. (d) Changes in safranine O fluorescence after digitonin addition (between 30 and 60 s) in control (C), TcMICU1-KO and TcMICU2-KO epimastigotes. […] Changes in safranine O fluorescence in control (C) (e), TcMICU1-KO (1-KO) (f), and TcMICU2-KO (2-KO) (g) epimastigotes after addition of ADP from three experiments like that shown in panels (a–c).
Estimation of mitochondrial membrane potential in situ was done spectrofluorometrically using the indicator dye safranine O, as described previously. […] Fluorescence changes were monitored using the Hitachi F-7000 spectrofluorometer (excitation of 495 nm and emission of 586 nm).

The next assay deals with T. cruzi epimastigotes. Nature of the assay: Cellular respiration of epimastigotes (high-resolution respirometry). It is filed as cell-based, Trypanosoma cruzi. On the procedure: Figure 4 Effect of Ru265 on Trypanosoma cruzi. (a) Effect of Ru265 on epimastigote growth. Growth of control epimastigotes in LIT medium in the presence of 1 μM, 5 μM, and 10 μM Ru265. (b) Effect of Ru265 on trypomastigote attachment. Trypomastigotes were pretreated for 30 min with 1 μM antimycin A (AA) or 10 μM Ru265 and added to glutaraldehyde-fixed Vero cells. After 1 h of incubation at 37 °C, the cells were washed, and the number of attached trypomastigotes was counted. […] (c) Effect of Ru265 on trypomastigotes infection. Trypomastigotes were pretreated for 30 min with 1 μM antimycin A or 10 μM Ru265 and added to Vero cells. After 4 h of incubation at 37 °C, the cells were washed, and the number of intracellular parasites was counted. […] (f) Routine respiration (initial oxygen flux values), leak respiration after the addition of 0.5 µg/mL of oligomycin A, and electron transfer system (ETS) capacity after the sequential additions of FCCP (0.2 μM each) were measured for each condition. […] (g) Representative experiment showing mitochondrial Ca^2+ uptake by intact epimastigotes in relative fluorescence units (RFU). […] (h) Changes in fluorescence (before and after ionomycin addition) from three experiments like that shown in panel (g). […]

As for `N.N.N.N.N.N.N.N.[Cl][Ru+3].[N-]=[Ru][Cl]` [Ru265], in assay [1], the “Effect on mitochondrial membrane potential (Δψm) and response to ADP” value is reported as “did not significantly affect”. The “Uncoupled respiratory control rate (state 3u / rate with oligomycin)” value in the assay on T. cruzi epimastigotes (10 µM Ru265, n = 3) is 1.70 ± 0.04. Besides, in the assay with T. cruzi epimastigotes (control epimastigotes, 10 µM Ru265, compared with parasites without inhibitor), the “Effect on O2 consumption level” value was “did not affect O2 consumption level”.
